Among the test systems are HCT-15 colon; MCF7 breast; SF-295 CNS; DU-145 prostate; NCI/ADR-RES ovarian; SW-620 colon; CCRF-CEM leukemia; SK-OV-3 ovarian; LOX IMVI melanoma; SK-MEL-28 melanoma.
Common to all, as to test: NCI-60 cell line screen, 48 h

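Interpolation was linear, between the two tested concentrations surrounding the appropriate level; five concentrations were tested over 48 hours in 96-well plates. Abbreviation: GI50, concentration required for 50% inhibition of growth. TGI: total growth inhibition.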

`O=C(Oc1ccc(Cl)cc1)c1ccccc1Nc1ccnc(C(F)(F)F)c1`: the GI50 was 2.07 µM in the assay with HCT-15 colon; 3.73 µM with MCF7 breast; 62.8 µM with SF-295 CNS; 18.7 µM in the assay on DU-145 prostate; 16.2 µM with NCI/ADR-RES ovarian; 6.66 µM in the assay on SW-620 colon. Also, the GI50 in the assay with CCRF-CEM leukemia was 4.94 µM. Further, the TGI with HCT-15 colon was 5.13 µM; in the assay with MCF7 breast it was 14.7 µM; with SF-295 CNS, above 100 µM; with DU-145 prostate, 39.8 µM; with NCI/ADR-RES ovarian it was 49.5 µM; in the assay with SW-620 colon, 63.3 µM. In the assay on CCRF-CEM leukemia, the TGI was found to be 52.8 µM.
As to `O=C(Nc1ccc(Oc2ccc(Nc3nc4ccccc4s3)cc2)cc1)Nc1ccc(Cl)c(C(F)(F)F)c1`, the GI50 is 1.54 µM in the assay with HCT-15 colon; 1.86 µM with SK-OV-3 ovarian; 1.35 µM in the assay on MCF7 breast; 1.66 µM in the assay with SF-295 CNS; 1.42 µM in the assay with LOX IMVI melanoma; 2.47 µM with DU-145 prostate. In addition, the GI50 is 1.8 µM in the assay on NCI/ADR-RES ovarian, 1.75 µM with SW-620 colon, 1.76 µM in the assay on CCRF-CEM leukemia and 1.57 µM in the assay with SK-MEL-28 melanoma. Besides, the TGI in the assay with HCT-15 colon is 3.44 µM; in the assay with SK-OV-3 ovarian it was 4.42 µM; with MCF7 breast, 3.7 µM; in the assay on SF-295 CNS, 3.41 µM; in the assay on LOX IMVI melanoma, 2.76 µM; in the assay on DU-145 prostate, 7.22 µM. Moreover, the TGI is 4.11 µM with NCI/ADR-RES ovarian, 3.54 µM in the assay on SW-620 colon, above 100 µM in the assay with CCRF-CEM leukemia and 3.2 µM in the assay with SK-MEL-28 melanoma.
Regarding `CN(C)CC1CC/C(=C\c2ccc(O)cc2)C1=O` (stereo not drawn), the TGI with HCT-15 colon worked out at 5.48 µM; in the assay with SK-OV-3 ovarian, 32.3 µM; in the assay on MCF7 breast it was 4.56 µM; in the assay with SF-295 CNS, 34.5 µM; in the assay on LOX IMVI melanoma, 5.51 µM; in the assay with DU-145 prostate, 29.6 µM. Moreover, the TGI in the assay on NCI/ADR-RES ovarian amounted to 21.5 µM; in the assay on SW-620 colon, 5.33 µM; in the assay with CCRF-CEM leukemia, 3.53 µM; with SK-MEL-28 melanoma, 6.08 µM.
As to `COc1cccc(C(=O)NC(c2ccc(C)cc2)c2cc(Cl)c3cccnc3c2O)c1` (stereo not drawn), the GI50 in the assay with HCT-15 colon is 0.309 µM; in the assay with SK-OV-3 ovarian it was 0.682 µM; with MCF7 breast, 0.371 µM; with SF-295 CNS it was 0.382 µM; in the assay with LOX IMVI melanoma it was 0.563 µM; in the assay with DU-145 prostate it was 1.14 µM. In addition, the GI50 with NCI/ADR-RES ovarian was 0.33 µM; with SW-620 colon, 0.425 µM; in the assay on CCRF-CEM leukemia, 0.366 µM; in the assay with SK-MEL-28 melanoma, 0.743 µM. Further, the TGI was 28.2 µM in the assay with HCT-15 colon; 11.3 µM in the assay with SK-OV-3 ovarian; above 30.4 µM with MCF7 breast; 15.3 µM in the assay on SF-295 CNS; 11.6 µM in the assay with LOX IMVI melanoma; 14.3 µM in the assay on DU-145 prostate. In addition, the TGI in the assay with NCI/ADR-RES ovarian is above 88.6 µM; in the assay on SW-620 colon it was 23.4 µM; with CCRF-CEM leukemia, 11.7 µM; in the assay on SK-MEL-28 melanoma, 17.1 µM.
Regarding `Oc1[nH]c2ccccc2c1N=Nc1nc(-c2ccc(Br)cc2)cs1`, the TGI in the assay on HCT-15 colon is 68.3 µM; with SK-OV-3 ovarian, 66.3 µM; in the assay with MCF7 breast, above 100 µM; in the assay with SF-295 CNS, 67.7 µM; with LOX IMVI melanoma, 33.1 µM; in the assay on DU-145 prostate, 68 µM. The TGI is 44.1 µM with NCI/ADR-RES ovarian, above 100 µM in the assay with SW-620 colon, 61.8 µM in the assay on CCRF-CEM leukemia and 53.9 µM in the assay with SK-MEL-28 melanoma.
For `CC(C)[C@@H]1C=C2CC[C@H]3[C@](C)(CN)CCC[C@]3(C)[C@H]2CC1`, the GI50 with HCT-15 colon is 2.08 µM; in the assay on SK-OV-3 ovarian, 13.2 µM; with MCF7 breast, 1.62 µM; in the assay on SF-295 CNS it was 1.9 µM; with LOX IMVI melanoma, 1.52 µM; with DU-145 prostate it was 2.05 µM. For the same compound, the GI50 in the assay with NCI/ADR-RES ovarian was 2.62 µM; in the assay with SW-620 colon it was 1.73 µM; in the assay with CCRF-CEM leukemia it was 3.39 µM; in the assay with SK-MEL-28 melanoma, 16.9 µM. The TGI came to 4.94 µM with HCT-15 colon; 26 µM in the assay with SK-OV-3 ovarian; 3.06 µM in the assay with MCF7 breast; 4.29 µM with SF-295 CNS; 2.85 µM in the assay with LOX IMVI melanoma; 4.08 µM in the assay on DU-145 prostate. Moreover, the TGI in the assay with NCI/ADR-RES ovarian turned out to be 7.32 µM; in the assay on SW-620 colon, 3.23 µM; in the assay on CCRF-CEM leukemia, 13.8 µM; in the assay on SK-MEL-28 melanoma, 30.7 µM.
As to `CCCCCCCCCCCCC(O)c1ccc(C#CCCCCCCCCCO)o1` (stereo not drawn), the GI50 was 18.2 µM with HCT-15 colon; 25.8 µM in the assay on SK-OV-3 ovarian; 17.3 µM in the assay on MCF7 breast; 16.4 µM in the assay with SF-295 CNS; 18.5 µM in the assay on LOX IMVI melanoma; 18.8 µM in the assay with DU-145 prostate. Further, the GI50 was 18.3 µM with NCI/ADR-RES ovarian, 22.7 µM in the assay on SW-620 colon, 23.2 µM with CCRF-CEM leukemia and 37.2 µM in the assay with SK-MEL-28 melanoma. Further, the TGI was 36.8 µM with HCT-15 colon; 62.2 µM in the assay on SK-OV-3 ovarian; 42.3 µM in the assay with MCF7 breast; 31.7 µM in the assay with SF-295 CNS; 33.5 µM in the assay with LOX IMVI melanoma; 33 µM in the assay on DU-145 prostate. Besides, the TGI is 34.3 µM in the assay with NCI/ADR-RES ovarian, 41.4 µM with SW-620 colon, 51.4 µM with CCRF-CEM leukemia and above 100 µM in the assay on SK-MEL-28 melanoma.
As for `COc1ccc(-c2cn[nH]c2-c2cc(OC)c(OC)c(OC)c2)cc1`, the GI50 in the assay with HCT-15 colon is 0.0217 µM; in the assay with SK-OV-3 ovarian, 0.0293 µM; with MCF7 breast, 0.0284 µM; with LOX IMVI melanoma, 0.123 µM; in the assay on DU-145 prostate it was 0.0392 µM; with NCI/ADR-RES ovarian, 0.0305 µM. In addition, the GI50 is 0.0316 µM in the assay with SW-620 colon, 0.0353 µM in the assay with CCRF-CEM leukemia and 0.0376 µM in the assay with SK-MEL-28 melanoma. Also, the TGI in the assay with HCT-15 colon worked out at 21.8 µM; in the assay with SK-OV-3 ovarian, 9.12 µM; with MCF7 breast, 16.8 µM; with SF-295 CNS, 0.0379 µM; with LOX IMVI melanoma, 20.7 µM; with DU-145 prostate it was 2.67 µM. Further, the TGI with NCI/ADR-RES ovarian is 40.2 µM; in the assay with SW-620 colon, 26.7 µM; with CCRF-CEM leukemia, above 42.6 µM; with SK-MEL-28 melanoma it was 32 µM.

For the origin of these results see PubChem BioAssay (NCI).
